From US4620005A, “1-isopropyl-4[(4-tetrahydro-1-naphthoyloxy phenyl)(alkylene)-carbonyl(oxymethlcarbonyl)]piperazines having chymotrypsin-inhibitory activity” (Kowa Co., Ltd., priority 1983, dated 1986) come the findings set out here.

This assay deals with chymotrypsin (Bos taurus, UniProt P00766). The experiment in a line: chymotrypsin inhibitory effect (procedure of Muramatsu et al; acetyl-L-tyrosine ethyl ester substrate, Hestrin colour development). Type of assay: biochemical. The note with it: 10 min preincubation; 25 mM acetyl-L-tyrosine ethyl ester; 0.1M Tris-HCl pH 8.0; 37° C., 30 min; absorbance 530 nm; read-out: Inhibitory Activity [50% Inhibitory Concentration (M)]. As to the method:
Some selected compounds of this invention were tested with respect to their chymotrypsin inhibitory effects.
The tests were conducted in accordance with the procedure of Muramatsu et al [The Journal of Biochemistry, 62, 408 (1967)]. A mixture was prepared which was made up of 0.1 ml of a dimethylsulfoxide solution of each test compound, 0.1 ml of water and 0.1 ml of a buffer solution containing 10 μg/ml of chymotrypsin (0.1M Tris-HCl buffer, pH 8.0). The mixture was incubated for 10 minutes, followed by addition of 0.2 ml of a buffer solution containing 25 mM of an ethyl ester of acetyl-L-tyrosine. The resulting mixture was reacted at 37° C. for 30 minutes. The remaining substrate was caused to develop a color by the Hesterin method, whereupon its absorbance was measured at 530 nm. As a comparative compound, use was made of tosylphenylalanine chloromethyl ketone (TPCK) which is known as an inhibitor for chymotrypsin.
The results are shown in Table 1 in which the numbers of the test compounds are indicated as those of the corresponding examples given hereunder.

Each structure is given as a SMILES string. Counter-ions that a name gives are not always drawn.

Regarding `CC(C)N1CCN(CCNC(=O)c2ccc(OC(=O)C3CCCc4ccccc43)cc2)CC1` (centres unmarked) [Example 3], the IC50 amounted to 7e-07 M. Consider `CC(C)N1CCN(C(=O)C=Cc2ccc(OC(=O)C3CCCc4ccccc43)cc2)CC1` (centres unmarked) [Example 2], for which the IC50 was 3e-06 M. `CC(C)N1CCN(C(=O)COC(=O)c2ccc(OC(=O)C3CCCc4ccccc43)cc2)CC1` (centres unmarked) [Example 5]: the IC50 turned out to be 3e-08 M. As for `CN1CCN(C(=O)C=Cc2ccc(OC(=O)C3CCCc4ccccc43)cc2)CC1` (centres unmarked) [Example 4], the figure is 6e-07 M; as for `CC(C)N1CCN(CC(=O)Nc2ccc(OC(=O)C3CCCc4ccccc43)cc2)CC1` (centres unmarked) [Example 1, 1-Isopropyl-4-[{4-(1,2,3,4-tetrahydro-1-naphthoyloxy)-phenyl}carbamoylmethyl]piperazine.dihydrochloride], 4e-06 M.
